Reference: patent US5922871A, “Terephthalamide derivatives” (Dongwha Pharmaceutical Ind. Co., Ltd., priority 1997, dated 1999)

What was measured:
[1] = molecular target: T1, HIV reverse transcriptase (HIV-RT) (Human immunodeficiency virus type 1 group M subtype B, UniProt P04585); assay: in vitro inhibition test against HIV reverse transcriptase; assay type: biochemical, HIV (AIDS virus); conditions: read-out: Inhibitory effect of HIV-RT; for inhibition at 0.1 µg/mL: 0.1 μg/ml; for inhibition at 1 µg/mL: 1 μg/ml
T1 construct: purchased Boehringer Mannheim
Procedure: Experiment 3: The in vitro inhibition test against HIV reverse transcriptase
The inhibitory activity in vitro was measured using a non-radioactive reverse transcriptase assay Kit (Boehringer Mannheim).
At first, 20 μl(40 ng) HIV-RT was added to the wells coated with streptavidin and with the addition of 20 μl, reaction mixture containing template/primer hybrid poly(A)/oligo(dT)15 and DIG-(digoxigenin)-dUTP, biotin-dUTP and TTP, 20 μl test compound was added and reacted at 37° C. for 1 hour. The control without test compound was used for the comparison of related activity. Since DNA containing nucleotide labeled with digoxigenin and biotine was prepared by the action of HIV-RT, it was combined with streptavidin coated at the bottom of the wells. After the reaction was completed, remaining impurities were removed by washing each well with 20 μl buffer solution (pH 7.0) for 30 seconds 5 times and with the addition of 200 μl anti-DIG-POD antibody, the mixture was reacted at 37° C. for 1 hour. For the removal of remaining impurities again, the reacting solution was washed with a buffer solution and with the addition of 200μl ABTS™ each, a substrate of POD(peroxidase), the solution was reacted at room temperature for 30 minutes. The absorbance was read by ELISA reader at 405 nm for the assay of reverse transcriptase activity and its inhibition activity.

[2] = molecular target: T2, HBV polymerase reverse transcriptase (HBV-RT) (Hepatitis B virus genotype D subtype ayw, UniProt P03156); assay: inhibitory activity against HBV polymerase in vitro (reverse transcriptase activity); assay type: biochemical; conditions: read-out: Inhibitory effect of HBV-RT; for inhibition at 0.1 µg/mL: 0.1 μg/ml; for inhibition at 1 µg/mL: 1 μg/ml
T2 construct: made in house; host or cells: E. coli
T2 sequence (P03156 whole entry): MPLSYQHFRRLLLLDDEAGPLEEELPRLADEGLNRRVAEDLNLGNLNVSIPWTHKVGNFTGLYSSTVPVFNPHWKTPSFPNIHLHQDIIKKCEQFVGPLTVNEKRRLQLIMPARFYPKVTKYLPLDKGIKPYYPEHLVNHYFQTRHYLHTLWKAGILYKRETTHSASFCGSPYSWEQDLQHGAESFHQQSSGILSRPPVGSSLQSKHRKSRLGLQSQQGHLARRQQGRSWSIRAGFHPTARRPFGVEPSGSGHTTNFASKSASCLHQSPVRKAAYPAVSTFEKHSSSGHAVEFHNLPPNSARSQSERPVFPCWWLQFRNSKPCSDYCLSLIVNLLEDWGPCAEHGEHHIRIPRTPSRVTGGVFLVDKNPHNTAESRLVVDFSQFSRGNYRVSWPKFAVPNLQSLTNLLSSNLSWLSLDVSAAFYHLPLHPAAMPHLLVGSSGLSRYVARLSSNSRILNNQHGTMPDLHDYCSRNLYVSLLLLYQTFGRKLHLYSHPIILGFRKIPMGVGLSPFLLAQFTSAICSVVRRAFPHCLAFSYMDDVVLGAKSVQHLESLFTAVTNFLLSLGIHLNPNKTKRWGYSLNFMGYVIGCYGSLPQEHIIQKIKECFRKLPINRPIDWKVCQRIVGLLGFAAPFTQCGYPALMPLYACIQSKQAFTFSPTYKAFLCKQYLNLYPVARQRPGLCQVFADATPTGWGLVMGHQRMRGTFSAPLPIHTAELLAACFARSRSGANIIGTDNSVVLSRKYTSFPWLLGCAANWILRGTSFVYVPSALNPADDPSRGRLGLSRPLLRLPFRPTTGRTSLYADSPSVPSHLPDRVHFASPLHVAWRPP
From the text: Experiment 1: The inhibitory activity against HBV polymerase in vitro.
Recently, the inventors of the present invention have produced a recombinant HBV polymerase that is expressed from E.coli transformant, measured its enzyme activity and filed patent applications thereof [Korean Patent Application Nos. 94-3918, 96-33998 and 96-63255].
The inventions have established a method of measuring the reverse transcriptase activity of HBV polymerase in vitro. The fundamental principle is the same as the ELISA method, and after reacting the substrate with biotin- and DIG-modified nucleotide, a method of recognizing the polymerized substrate as anti-DIG antibody with peroxidase was used. […] and 20 μ of test compound were mixed and reacted at 14~30° C. for 18~24 hours. Then, the inhibitory effect of test compound against reverse trascriptase activity in the HBV polymerase was examined, compared with the results of control tests without the test compound.

| Structure (SMILES) | inhibition at 0.1 µg/mL [1] [%] | inhibition at 1 µg/mL [1] [%] | inhibition at 0.1 µg/mL [2] [%] | inhibition at 1 µg/mL [2] [%] |
| --- | --- | --- | --- | --- |
| CC(C)Nc1cccnc1N1CCN(C(=O)c2ccc(C(=O)NCCN(C)C)cc2)CC1 [Compound No. 83, 1-[N-[2-(Dimethylamino)ethyl]carbamoyl]-4-[1-[3-(isopropylamino)-2-pyridyl]piperazin-4-yl-carbonyl]benzene] | 62 | 65 | 62 | 65 |
| CC(C)Nc1cccnc1N1CCN(C(=O)c2ccc(C(=O)N(C)CCO)cc2)CC1 [Compound No. 5, 1-[N-(2-Hydroxyethyl)-N-methylcarbamoyl]-4-[1-[3-(isopropylamino)-2-pyridyl]piperazin-4-yl-carbonyl]benzene] | 43 | 71 | 40 | 48 |
| CC(C)Nc1cccnc1N1CCN(C(=O)c2ccc(C(=O)NCCN3CCOCC3)cc2)CC1 [Compound No. 79, 4-[1-[3-(Isopropylamino)-2-pyridyl]piperazin-4-yl-carbonyl]-1-[N-[2-(morpholin-4-yl)ethyl]carbamoyl]benzene] | 59 | 71 | 65 | 72 |
| CC(C)Nc1cccnc1N1CCN(C(=O)c2ccc(C(=O)N[C@H](CO)C(C)C)cc2)CC1 [Compound No. 38, 1-[N-[(1S)-2-Hydroxy-1-(1-methylethyl)ethyl]carbamoyl]-4-[1-[3-(isopropylamino)-2-pyridyl]piperazin-4-yl-carbonyl]benzene] | 20 | 78 | 50 | 67 |
| CC(C)Nc1cccnc1N1CCN(C(=O)c2ccc(C(=O)NCCCO)cc2)CC1 [Compound No. 2, 1-[N-(3-Hydroxypropyl)carbamoyl]-4-[1-[3-(isopropylamino)-2-pyridyl]piperazin-4-yl-carbonyl]benzene] | 35 | 40 | 34 | 42 |
| CC(C)Nc1cccnc1N1CCN(C(=O)c2ccc(C(=O)N3CCN(CCOCCO)CC3)cc2)CC1 [Compound No. 32, 4-[2-(2-Hydroxyethoxy)ethyl]-1-[4-[1-[3-(isopropylamino)-2-pyridyl]piperazin-4-yl-carbonyl]benzoyl]piperazine] | 27 | 58 | 40 | 71 |
| CC(C)Nc1cccnc1N1CCN(C(=O)c2ccc(C(=O)N[C@@H](CO)C(C)C)cc2)CC1 [Compound No. 39, 1-[N-[(1R)-2-Hydroxy-1-(1-methylethyl)ethyl]carbamoyl]-4-[1-[3-(isopropylamino)-2-pyridyl]piperazin-4-yl-carbonyl]benzene] | 25 | 75 | 30 | 78 |
| CC(C)Nc1cccnc1N1CCN(C(=O)c2ccc(C(=O)N[C@H](CO)c3ccccc3)cc2)CC1 [Compound No. 48, 1-[N-[(1S)-2-Hydroxy-1-phenylethyl]carbamoyl]-4-[1-[3-(isopropylamino)-2-pyridyl]piperazin-4-yl-carbonyl]benzene] | 46 | 51 | 61 | 80 |
